According to patent USRE36385E, “Glucopyranose derivatives” (Ono Pharmaceutical Co., Ltd., priority 1985, dated 1999):

Assays:
lympha cells = assay: Mitogenic activity in vitro (Blastogenic index); type: cell-based, C3H/He male mice; settings: Mus musculus, Lymphocyte; terminal concentration 1 μg/ml; ratio of 3H-tymidine uptake vs blank control; read-out: Blastgenic Index
Experimental: (1) Mitogenic activity in vitro
Mitogenic activity means activity of activating mitogenic cell division, and in this test system, the amount of tymidine taken into lympha cells was measured and a ratio determined against a blank control call (Blastogenic index) was calculated.
For example, adding the compound prepared in example 1(c) to the test system induced 30 times the amount of tymidine taken into the lympha cells versus the control.
The amounts were measured by density of a radiolabel.
Mytogenic activity in vitro was measured by the following method (See Procedure Method of Immunoexperiment pp 315 published by Japan Immunology Society).
C3H/He male mice 6 weeks old were killed by bloodletting, and their spleens were isolated and homogenized. Homogenizing liquids were filtered with gauze, and suspending cells were prepared with PBS solution. After washing, lymphacytes fractions were gathered with lympholight M. Lymphacytes were suspended in RPMI 1640 cultivation solution (10% FEBS), and the solution was divided into 5×10^5 cells/180 μl/wells. Ten times concentration of the terminal concentration (1 μg/ml) of the compounds of the present invention were added with 20 μl portions to each of the wells.
After cultivation, ^3 H-tymidine 0.5 μCi/20 μl was added to the each cells. Cultivation was continued at 37° C. for another 24 hrs, and amounts of ^3 H-tymidine taken into the cells were measured. Mitogenic activities were calculated as by Blastogenic index in as follows. [formula]

Mice L-M cells = assay: Inducing activities of TNF in vitro (cytotoxicity of serum from treated mice); type: cell-based, mice (ICR male mice serum; mice L-M cells); settings: Mus musculus, iv; 10 μg via tail vein, serum 90 mins after; L-M cells 48 hrs; read-out: Cytotoxicities
Experimental: (2) Inducing activities of TNF in vitro
Inducing activity of TNF in vitro was measured by the following test system.
Corye parvum (manufactured by Ribi Immuno Chem. Research Inc.) was administered in ICR male mice 6-weeks old through the tail vein as priming agent. Ten days later, the compounds of the present invention (10 μg) were administered through tail vein as eliciting agent. 90 mins after the administration, blood was collected from the hearts, and blood serums were separated.
Mice L-M cells (10^4 /100 μl/well) suspended in a mixture of the diluted serum solution (100 μl/well) and RPMI 1640 cultivating solution (10% FEBS and 0.2% glucose; manufactured by Nissui Pharmaceutical Co.) were cultivated in an atmosphere of a mixed gas of 5% CO2 -[…], for 48 hrs at 37° C., after adding ^3 H-tymidine taken (0.5 μCi/20 μl/well). Amounts of ^3 H-tymidine taken into cells during the cultivation were measured.
Inducing activities of TNF were measured by cytotoxicity calculated as follows: [formula]

RLδ1 tumor = assay: Anti-tumor effect on Balb/C mice inoculated with RLδ1 tumor; type: in vivo, female Balb/C mice; settings: for Survival period: Day 10, day ± standard error; for effect on tumor regression: 3 mg/body, Day 14 (4 day after administration); for Appearent tumor weight: g ± standard error
Experimental: (2) Anti-tumor effect on Balb/C mice inoculated with RLδ1 tumor.
Tumor cells which had been maintained in ascites of Balb/C mouse generation after generation was used. One group is consisting of six female balb/C mice. RLδ1 tumor (1×10^5 cells/0.05 ml) was inoculated into left side of female mice of 6-week old (body weight: 18~20 g). Ten days after, when tumore size came to 7~10 mm, compound of example No. 1(1) or 1(t) was administered by i.p. route (Day 10). Dose of test compound was 1 and 3 mg/body dand each test compound solution volume was 10 ml/kg. Antitumore effect is estimated by survival period and tumor appearent weight.
Test results about survival period and tumor apparent weight are shown in the following Tables II(3) and II(4), respectively.

Meth-A sarcoma = assay: Anti-tumor effect on Balb/C mice inoculated with Meth-A Sarcoma; type: in vivo, female Balb/C mice; settings: for Apperarent tumor weight: g ± standard error; for effect on prolongation of life / effect on tumore regression: at the dose of 3 mg/kg; for Survival period: iv tail vein Day 7, 9, 12, day ± standard error
Experimental: (1) Anti-tumor effect on Balb/C mice inocudlated with Meth-A Sarcoma
Anti-tumor effect was measured by the following procedure.
Tumor cells which had been maintained in ascites of Balb/C mouse generation after generation was used. One group is consisting of eight female Balb/C mice. Meth-A sarcoma tumor (1×10^5 cells/0.05 ml) was inoculated into left side of female mice of 7-week old (body weight: 18-20 g). Seven day after, when tumor size came to 6~9 mm, test compound was administered into tail vein first (day 7) and then administered two times (total three times: Day 7, 9, 12). Dose of test compound is 3 and 10 mg/kg or 3, 10 and 30 mg/kg and each test compound solution volume was 10 ml/kg. Anti-tumor effect is estimated by survival period (from inoculation day to death day) and tumor apparent weight. [formula] Test results about survival period and tumor appearent weight are shown in the following Tables II(1) and II(2), respectively.
In experiments, statistic analysis was done with unpaired Student's t(two tailed)-test. […] P values lower than 0.05 were judged to be significant.

[1] = dose 1 (mg/kg as printed) ip, Day 10 (first column)
[2] = dose 1 (mg/kg as printed) ip, second column printed Day 10
[3] = dose 3 (mg/kg as printed) ip, Day 10 (first column)
[4] = dose 3 (mg/kg as printed) ip, second column printed Day 10

## CCCCCCCCCCCC(CC(=O)N[C@H]1COC[C@@H](OS(=O)(=O)O)[C@@H]1OC(=O)CCCCCCCCc1ccccc1)OC(=O)CCCCCCCCc1ccccc1 (single isomer, unassigned) [3(c), 2-deoxy-2-[3-(9-phenylnonanoyl)oxytetradecanoyl]amino-3-O-(9-phenylnonanoyl)-4-O-sulfo-1,5-anhydro-D-xylitol]
Lympha cells
  fold induction at 1 µg/mL: 13.8

## CCCCCCCCCCCC(CC(=O)N[C@H]1COC[C@@H](OS(=O)(=O)O)[C@@H]1OC(=O)CCCCCCCCc1ccccc1)OC(=O)CCCCCCCCc1ccccc1 (single isomer, unassigned) [Example 3, 2-deoxy-2-[3-(9-phenylnonanoyl)oxytetradecanoyl]amino-3-O-(9-phenylnonanoyl)-4-O-sulfo-1,5-anhydro-D-xylitol]
Mice L-M cells
  cytotoxicity at 0.01 mg: 50.7%

## CCCCCCCCCCC[C@@H](CC(=O)N[C@H]1C(O)O[C@H](CO)[C@@H](OS(=O)(=O)O)[C@@H]1OC(=O)CCCCCCCCCCc1ccccc1)OC(=O)CCCCCCCCCCc1ccccc1 (stereo partly drawn) [1(f), 2-deoxy-2-[3S-(11-phenylundecanoyloxy)tetradecanoyl]amino-3-O-(11-phenylundecanoyl)-4-O-sulfo-D-glucopyranose]
Lympha cells
  fold induction at 1 µg/mL: 23

## CCCCCCCCCCC[C@@H](CC(=O)N[C@H]1C(O)O[C@H](CO)[C@@H](OS(=O)(=O)O)[C@@H]1OC(=O)CCCCCCCOc1ccccc1)OC(=O)CCCCCCCOc1ccccc1 (stereo partly drawn) [1(l), 2-deoxy-2-[3S-(8-phenoxyoctanoyloxy)tetradecanoyl]amino-3-O-(8-phenoxyoctanoyl)-4-O-sulfo-D-glucopyranose]
RLδ1 tumor; 1 mg/body ip
  Survival period: 47.3 ± 18.8 days
RLδ1 tumor; 3 mg/body ip
  Survival period: 55.3 ± 16.4 days
RLδ1 tumor
  effect on tumor regression: significant effect
RLδ1 tumor; [1]
  Appearent tumor weight: 0.216 ± 0.043 g
RLδ1 tumor; [2]
  Appearent tumor weight: 0.234 ± 0.168 g
RLδ1 tumor; dose 1 (mg/kg) ip, Day 13
  Appearent tumor weight: 0.351 ± 0.349 g
RLδ1 tumor; [3]
  Appearent tumor weight: 0.216 ± 0.029 g
RLδ1 tumor; [4]
  Appearent tumor weight: 0.210 ± 0.192 g
RLδ1 tumor; dose 3 (mg/kg) ip, Day 13
  Appearent tumor weight: 0.333 ± 0.375 g

## CCCCCCCCCCC[C@@H](CC(=O)N[C@H]1C(O)O[C@H](CO)[C@@H](OS(=O)(=O)O)[C@@H]1OC(=O)CCCCCCCCc1cccc2ccccc12)OC(=O)CCCCCCCCc1cccc2ccccc12 (stereo partly drawn) [1(o), 2-deoxy-2-[3S-[9-(1-naphthyl)nonanoyloxy]tetradecanoyl]amino-3-O-[9-(1-naphthyl)nonanoyl]-4-O-sulfo-D-glucopyranose]
Lympha cells
  fold induction at 1 µg/mL: 17

## CCCCCCCCCCC[C@H](CC(=O)N[C@H]1[C@H](OC)O[C@H](CO)[C@@H](OS(=O)(=O)O)[C@@H]1OC(=O)CCCCCCCCc1ccccc1)OC(=O)CCCCCCCCc1ccccc1 [1(t), 2-methyl-2-deoxy-2-[3R-(9-phenylnonanoyloxy)tetradecanoyl]amino-3-O-(9-phenylnonanoyl)-4-O-sulfo-β-D-glucopyranoside]
RLδ1 tumor; 1 mg/body ip
  Survival period: 51.8 ± 20.1 days
RLδ1 tumor; 3 mg/body ip
  Survival period: 54.0 ± 18.4 days
RLδ1 tumor
  effect on tumor regression: significant effect
RLδ1 tumor; [1]
  Appearent tumor weight: 0.226 ± 0.082 g
RLδ1 tumor; [2]
  Appearent tumor weight: 0.241 ± 0.257 g
RLδ1 tumor; dose 1 (mg/kg) ip, Day 13
  Appearent tumor weight: 0.383 ± 0.583 g
RLδ1 tumor; [3]
  Appearent tumor weight: 0.213 ± 0.041 g
RLδ1 tumor; [4]
  Appearent tumor weight: 0.159 ± 0.092 g
RLδ1 tumor; dose 3 (mg/kg) ip, Day 13
  Appearent tumor weight: 0.147 ± 0.153 g
Lympha cells
  fold induction at 1 µg/mL: 50

## O=C(CCCCCCCCc1cccc2ccccc12)N[C@H]1C(O)O[C@H](CO)[C@@H](OS(=O)(=O)O)[C@@H]1OC(=O)CCCCCCCCc1cccc2ccccc12 (stereo partly drawn) [1(u), 2-deoxy-2-[9-(1-naphthyl)nonanoyl]amino-3-O-[9-(1-naphthyl)nonanoyl]-4-O-sulfo-D-glucopyranose]
Lympha cells
  fold induction at 1 µg/mL: 10

## CCCCCCCCCCOc1ccc(C(=O)N[C@H]2[C@@H](OC)O[C@H](CO)[C@@H](OS(=O)(=O)O)[C@@H]2OC(=O)c2ccc(OCCCCCCCCCC)c(OCCCCCCCCCC)c2)cc1OCCCCCCCCCC [4(b), Methyl 2-deoxy-2-(3,4-didecyloxybenzoyl)amino-3-O-(3,4-didecyloxybenzoyl)-4-O-sulfo-α-D-glucopyranoside]
Meth-A sarcoma; 3 mg/kg iv, Day 7
  Apperarent tumor weight: 0.218 ± 0.028 g
Meth-A sarcoma; 3 mg/kg iv, Day 10
  Apperarent tumor weight: 0.172 ± 0.094 g
Meth-A sarcoma; 3 mg/kg iv, Day 13
  Apperarent tumor weight: 0.272 ± 0.181 g
Meth-A sarcoma; 3 mg/kg iv, Day 16
  Apperarent tumor weight: 0.430 ± 0.459 g
Meth-A sarcoma; 10 mg/kg iv, Day 7
  Apperarent tumor weight: 0.217 ± 0.022 g
Meth-A sarcoma; 10 mg/kg iv, Day 10
  Apperarent tumor weight: 0.154 ± 0.042 g
Meth-A sarcoma; 10 mg/kg iv, Day 13
  Apperarent tumor weight: 0.197 ± 0.068 g
Meth-A sarcoma; 10 mg/kg iv, Day 16
  Apperarent tumor weight: 0.172 ± 0.141 g
Meth-A sarcoma
  effect on prolongation of life: significant effect
  effect on tumore regression: significant effect
Meth-A sarcoma; dose 3 (mg/kg)
  Survival period: 61.6 ± 18.0 days
Meth-A sarcoma; dose 10 (mg/kg)
  Survival period: 65.8 ± 20.4 days

## CCCCCCCCCCCCCC(=O)N[C@H]1C(O)O[C@H](CO)[C@@H](OS(=O)(=O)O)[C@@H]1OC(=O)c1ccc(OCCCCCCCCCC)c(OCCCCCCCCCC)c1 (stereo partly drawn) [4(c)]
Meth-A sarcoma; 3 mg/kg iv, Day 7
  Apperarent tumor weight: 0.200 ± 0.044 g
Meth-A sarcoma; 3 mg/kg iv, Day 10
  Apperarent tumor weight: 0.230 ± 0.084 g
Meth-A sarcoma; 3 mg/kg iv, Day 13
  Apperarent tumor weight: 0.392 ± 0.176 g
Meth-A sarcoma; 3 mg/kg iv, Day 16
  Apperarent tumor weight: 0.578 ± 0.274 g
Meth-A sarcoma; 10 mg/kg iv, Day 7
  Apperarent tumor weight: 0.210 ± 0.025 g
Meth-A sarcoma; 10 mg/kg iv, Day 10
  Apperarent tumor weight: 0.206 ± 0.053 g
Meth-A sarcoma; 10 mg/kg iv, Day 13
  Apperarent tumor weight: 0.242 ± 0.086 g
Meth-A sarcoma; 10 mg/kg iv, Day 16
  Apperarent tumor weight: 0.300 ± 0.193 g
Meth-A sarcoma; 30 mg/kg iv, Day 7
  Apperarent tumor weight: 0.209 ± 0.023 g
Meth-A sarcoma; 30 mg/kg iv, Day 10
  Apperarent tumor weight: 0.168 ± 0.062 g
Meth-A sarcoma; 30 mg/kg iv, Day 13
  Apperarent tumor weight: 0.222 ± 0.152 g
Meth-A sarcoma; 30 mg/kg iv, Day 16
  Apperarent tumor weight: 0.309 ± 0.259 g
Meth-A sarcoma
  effect on prolongation of life: significant effect
  effect on tumore regression: significant effect
Meth-A sarcoma; dose 3 (mg/kg)
  Survival period: 51.9 ± 8.2 days
Meth-A sarcoma; dose 10 (mg/kg)
  Survival period: 58.3 ± 13.8 days
Meth-A sarcoma; dose 30 (mg/kg)
  Survival period: 71.3 ± 16.1 days

## CCCCCCCCCCC[C@@H](CC(=O)N[C@H]1CO[C@H](C)[C@@H](OS(=O)(=O)O)[C@@H]1OC(=O)CCCCCCCCc1ccccc1)OC(=O)CCCCCCCCc1ccccc1 [Example 2, 2,6-deoxy-2-[3S-(9-phenylnonanoyloxy)tetradecanoyl]amino-3-O-(9-phenynonanoyl)-4-O-sulfo-1,5-anhydro-D-glucitol]
Lympha cells
  fold induction at 1 µg/mL: 33
